Test results: ChEMBL document CHEMBL1201862, “PubChem BioAssay data set” (2004)
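All cell lines were grown in 96-well plates and treated with compound for 48 hours. GI50 marks 50% less growth.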 Activity calls are given as the source filed them. No stated cut-off is given here; in the data, active = GI50 up to about 1.1 µM and inactive = higher.

Columns and labels:
Assay in all cases: NCI-60 cell line screen, 48 h
BT-549 = tested on: BT-549
DMS-114 = tested on: DMS-114
KM-20L2 = tested on: KM-20L2
HOP-18 = tested on: HOP-18
DLD-1 = tested on: DLD-1
XF498 = tested on: XF498
LXFL 529 = tested on: LXFL 529
SNB-78 = tested on: SNB-78
RXF 631 = tested on: RXF 631

Measured: GI50

CC1(C)OCC([C@H]2O[C@@H](CC(=S)NCCCCCCCCCCCCNC(=S)C[C@H]3O[C@@H](C4COC(C)(C)O4)[C@H]4OC(C)(C)O[C@H]43)[C@H]3OC(C)(C)O[C@H]32)O1 (stereo partly drawn)
inactive: BT-549 35 µM

O=CN/C=C\c1cc(O)ccc1O
inactive: DMS-114 14.5 µM | KM-20L2 14.8 µM | HOP-18 16.8 µM | DLD-1 14.6 µM | XF498 15.4 µM | LXFL 529 10.8 µM | SNB-78 70 µM

Cc1cccc2c(N)c3cccc(C(=O)NCC[N+](C)(C)Cc4sc(N5CCOCC5)nc4[N+](=O)[O-])c3nc12
inactive: BT-549 13.1 µM

O=C/C(=C(/Cl)c1ccc(O)cc1)c1ccccc1
inactive: DMS-114 12.3 µM | KM-20L2 31 µM | HOP-18 20.2 µM | RXF 631 24.8 µM | DLD-1 23.5 µM | XF498 18.9 µM | LXFL 529 25.4 µM | SNB-78 32.7 µM

Cc1cccc(NC2=NC(=O)C(CC(=O)Nc3ccccc3Cl)S2)c1 (stereo not drawn)
inactive: DMS-114 > 100 µM | KM-20L2 > 100 µM | RXF 631 > 100 µM | DLD-1 > 100 µM | XF498 95.1 µM | LXFL 529 > 100 µM | SNB-78 > 100 µM

CN(C)/C=C/C=C(/C=N/S(=O)(=O)C(F)(F)F)C1C=CN(S(=O)(=O)C(F)(F)F)C=C1
inactive: BT-549 26.2 µM

Cc1nc2ccc(NC3OCC(O)C(O)C3O)cc2c(=O)n1-c1ccccc1 (stereo not drawn)
inactive: BT-549 > 100 µM

CCOC(=O)/C=C/[C@H](O)[C@@H](O)/C=C/C(=O)OCC
inactive: BT-549 35.3 µM

CC(=O)OC1CCn2c1nc1cc([N+](=O)[O-])c(C)cc12 (stereo not drawn)
inactive: BT-549 > 100 µM

COc1ccc(N2C(=O)C3c4[nH]c5ccccc5c4C4CC(C)CC(C)C4C3C2=O)cc1 (stereo not drawn)
inactive: DMS-114 > 100 µM | KM-20L2 > 100 µM | HOP-18 > 100 µM | DLD-1 > 100 µM | XF498 > 100 µM | LXFL 529 > 100 µM | SNB-78 > 100 µM

COc1ccc2[nH]c3c(C)c4ccnc(NCCCN(C)CCCNc5ccc6nnn7c8ccccc8c(=O)c5c67)c4c(C)c3c2c1
inactive: BT-549 1.83 µM

Cn1ccnc1SC(F)(F)c1nc2ccccc2o1
inactive: BT-549 46.5 µM

Cc1nc2c(nc1C)-c1c(c3c(n1Cc1ccccc1)C(=O)CCC3)C(=O)C2=O
inactive: BT-549 2.86 µM

CCOC(=O)C1=C(Nc2cccc3ccccc23)OC/C1=N\NC(=O)c1ccccc1O
inactive: DMS-114 11.4 µM | KM-20L2 29 µM | HOP-18 11.1 µM | RXF 631 21.2 µM | DLD-1 17.6 µM | XF498 8.04 µM | LXFL 529 20.3 µM

COc1ccc(-c2nc3ccccc3s2)cc1OC
inactive: BT-549 15.4 µM

Cc1ccc(C(=O)Nc2ccc(CP(=O)(O)O)cc2)cc1NC(=O)c1cccc(NC(=O)Nc2cccc(C(=O)Nc3cc(C(=O)Nc4ccc(CP(=O)(O)O)cc4)ccc3C)c2)c1
inactive: BT-549 > 100 µM

O=C1O[B-](c2ccccc2)(c2ccccc2)[NH+]2CCCC12 (stereo not drawn)
inactive: BT-549 41.8 µM

C=C1C(OC2O[C@@H]3O[C@@]4(C)CC[C@H]5[C@H](C)CC[C@@H](C2=C)[C@@]35O4)O[C@@H]2O[C@@]3(C)CC[C@H]4[C@H](C)CC[C@@H]1[C@@]24O3 (stereo partly drawn)
inactive: BT-549 > 50 µM

O=S1(=O)C[C@H](O)[C@H](O)CS1
inactive: DMS-114 > 100 µM | KM-20L2 > 100 µM | HOP-18 > 100 µM | DLD-1 > 100 µM | XF498 > 100 µM | LXFL 529 > 100 µM | SNB-78 > 100 µM

O=C(O)CNc1ccc(C(=O)O)cc1
inactive: BT-549 > 100 µM

COc1ccccc1/C=C\c1cc(OC)c(OC)c(OC)c1
inactive: DMS-114 6.41 µM | HOP-18 > 100 µM | RXF 631 15.8 µM | DLD-1 23.2 µM | XF498 9.64 µM | LXFL 529 12.9 µM | SNB-78 28.3 µM

Cn1cnc([N+](=O)[O-])c1Sc1ccccn1
inactive: DMS-114 > 100 µM | HOP-18 14.9 µM | RXF 631 > 100 µM | DLD-1 > 100 µM | XF498 36.3 µM | LXFL 529 70.5 µM | SNB-78 > 100 µM

BrC(Br)([P+](c1ccccc1)(c1ccccc1)c1ccccc1)[P+](c1ccccc1)(c1ccccc1)c1ccccc1
inactive: DMS-114 13.4 µM | KM-20L2 24.9 µM | HOP-18 > 100 µM | DLD-1 15.9 µM | LXFL 529 15.2 µM | SNB-78 19.7 µM

OCC1CCC(n2cnc3c(O)ncnc32)O1 (stereo not drawn)
inactive: DMS-114 > 100 µM | KM-20L2 > 100 µM | HOP-18 > 100 µM | DLD-1 > 100 µM | BT-549 > 1000 µM

Nc1ccc(/N=N/c2ccccc2)cc1
inactive: BT-549 65.6 µM

CC(C)C1=Cc2ccc3c(c2C(=O)C1=O)CCCC3(C)C [MILTIRONE]
inactive: KM-20L2 20.3 µM | HOP-18 2.58 µM | DLD-1 2.15 µM | LXFL 529 1.86 µM | SNB-78 3.85 µM
